Assay results as given in ChEMBL document CHEMBL3886713, “Aromatic heterocyclic derivative having TRPV4-inhibiting activity” (2016).

Molecular target: Transient receptor potential cation channel subfamily V member 4 (Homo sapiens, UniProt Q9HBA0)
Assay: Inhibition Assay: Test Example 1: (1) The TRPV4 inhibitory activity was measured using CHO-K1 cells stably expressing human TRPV4 (hTRPV4/CHO cells). (2) In the day before the experimental day, frozen cell were thawed and washed with the culture medium (MEM-α, 10% FBS, 2 mmol/L GlutaMax, 50 unit Penicillin, 50 μg/mL Streptomycin). Then cells were suspended in the culture medium. (3) The 384-well plates which hTRPV4/CHO cells were seeded at densities of 4000 cells/well in the culture medium and cultured in a CO2 incubator in the presence of 5% CO2 at 37° C. for overnight was used as assay plates. (4) The assay plate was washed with assay buffer (Hanks, 20 mmol/L HEPES, 2.5 mmol/L probenecid, pH7.4), and the buffer were remained at 20 μL/well. (5) 10 μl of dye loading buffer (9 μmol/L Fluo 4-AM, 0.09% Pluronic F-127/assay buffer) was added to each well, then the assay plate was incubated in a CO2 incubator in the presence of 5% CO2 at 37° C. for one hour. (final 3 μmol/L Fluo4-AM). (6) The assay plate was washed with the assay buffer, and the buffers were remained at 20 μL/well. Then the assay plate was incubated for 10 min at room temperature. (7) Diluted compound solution was dispensed to each well in the compound plate, and mixed with built-in Pipette and Mixer of the Fluorescence analysis system FLIPR TETRA (Molecular devices). (8) After incubation for 5 min, 20 μL of 4α-PDD solution were applied to each well of assay plate and mixed with the FLIPR TETRA. (final 1 Î¼mol/L 4α-PDD). (9) The fluorescent intensity was measured with FLIPR TETRA system for 10 min from the point of time addition the compound solution, at Ex 470-495 nm, Em 515-575 nm wavelength.
Assay type: cell-based

Sequence of Transient receptor potential cation channel subfamily V member 4 (Q9HBA0 whole entry): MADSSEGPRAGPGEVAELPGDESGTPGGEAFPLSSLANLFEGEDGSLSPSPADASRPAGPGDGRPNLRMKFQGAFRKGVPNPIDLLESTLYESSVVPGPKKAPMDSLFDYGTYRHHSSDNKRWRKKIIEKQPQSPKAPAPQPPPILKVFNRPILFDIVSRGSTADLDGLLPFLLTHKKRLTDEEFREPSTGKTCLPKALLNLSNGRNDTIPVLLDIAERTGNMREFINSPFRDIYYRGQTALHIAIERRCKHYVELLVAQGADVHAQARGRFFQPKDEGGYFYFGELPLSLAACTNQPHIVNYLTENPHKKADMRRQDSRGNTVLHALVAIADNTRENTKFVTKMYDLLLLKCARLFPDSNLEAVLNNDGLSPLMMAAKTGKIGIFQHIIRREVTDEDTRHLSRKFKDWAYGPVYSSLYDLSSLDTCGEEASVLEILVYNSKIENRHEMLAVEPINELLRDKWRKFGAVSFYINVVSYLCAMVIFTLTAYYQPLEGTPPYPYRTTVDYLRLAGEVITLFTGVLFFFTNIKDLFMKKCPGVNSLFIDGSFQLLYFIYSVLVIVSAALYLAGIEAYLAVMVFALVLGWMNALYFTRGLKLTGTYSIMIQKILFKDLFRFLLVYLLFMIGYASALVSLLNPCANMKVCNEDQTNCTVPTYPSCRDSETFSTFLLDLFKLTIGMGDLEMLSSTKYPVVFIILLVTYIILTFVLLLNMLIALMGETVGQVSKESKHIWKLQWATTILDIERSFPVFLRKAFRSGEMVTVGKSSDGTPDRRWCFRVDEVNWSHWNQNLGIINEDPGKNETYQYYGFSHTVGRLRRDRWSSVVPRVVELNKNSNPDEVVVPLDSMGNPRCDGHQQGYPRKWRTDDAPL

Row | IC50 [nM] | Ki [nM] | Structure (SMILES)
1 | 8900 | 3100 | Cc1c(S(=O)(=O)NCc2cccc(C(F)(F)F)c2)cc(C(C)(C)C)n1CCCN1CCNCC1
2 | 7000 | 2400 | CNCCCn1c(C(C)(C)C)cc(S(=O)(=O)NCc2cccc(C(F)(F)F)c2)c1C

Row | Structure (SMILES) | IC50 [nM] | Ki [nM]
3 | Cc1c(C(=O)Nc2cccc(C(F)(F)F)c2)nc(-c2ccccc2)n1CCCN1CCOCC1 | 710 | 320
